# Results published in PubChem BioAssay AID1259407 (Chemical Carcinogenesis Research Information System (CCRIS), 2018).
# Calls of active or inactive are those of the source. No rule for the calls is given here.
# System: CCRIS mutagenicity, Ames/micronucleus/aberration tests
# Assay: CCRIS mutagenicity studies
smiles,measurement,setting,value
[O]=[Cr](=[O])([OH])[O][Cr](=[O])(=[O])[OH],mutagenic call,"Test System: AMES SALMONELLA TYPHIMURIUM, Strain/Indicator: TA92, Metabolic Activation: NONE, Method: STANDARD PLATE",active; positive
same,mutagenic call,"Test System: AMES SALMONELLA TYPHIMURIUM, Strain/Indicator: TA97, Metabolic Activation: HAMSTER, LIVER, S-9, AROCLOR 1254 (30%), Method: PREINCUBATION",active; positive
same,mutagenic call,"Test System: AMES SALMONELLA TYPHIMURIUM, Strain/Indicator: TA97, Metabolic Activation: NONE, Method: PREINCUBATION",active; positive
same,mutagenic call,"Test System: AMES SALMONELLA TYPHIMURIUM, Strain/Indicator: TA97, Metabolic Activation: RAT, LIVER, S-9, AROCLOR 1254 (30%), Method: PREINCUBATION",active; positive
same,mutagenic call,"Test System: AMES SALMONELLA TYPHIMURIUM, Strain/Indicator: TA97A, Metabolic Activation: NONE, Method: MICROSUSPENSION-PREINCUBATION",active; positive
same,mutagenic call,"Test System: AMES SALMONELLA TYPHIMURIUM, Strain/Indicator: TA97A, Metabolic Activation: RAT, LIVER, S-9, AROCLOR 1254, Method: MICROSUSPENSION-PREINCUBATION",active; positive
same,mutagenic call,"Test System: AMES SALMONELLA TYPHIMURIUM, Strain/Indicator: TA98, Metabolic Activation: HAMSTER, LIVER, S-9, AROCLOR 1254 (30%), Method: PREINCUBATION",active; positive
same,mutagenic call,"Test System: AMES SALMONELLA TYPHIMURIUM, Strain/Indicator: TA98, Metabolic Activation: NONE, Method: MICROSUSPENSION-PREINCUBATION",active; positive
same,mutagenic call,"Test System: AMES SALMONELLA TYPHIMURIUM, Strain/Indicator: TA98, Metabolic Activation: NONE, Method: PREINCUBATION",active; positive
same,mutagenic call,"Test System: AMES SALMONELLA TYPHIMURIUM, Strain/Indicator: TA98, Metabolic Activation: NONE, Method: STANDARD PLATE",active; positive
same,mutagenic call,"Test System: AMES SALMONELLA TYPHIMURIUM, Strain/Indicator: TA98, Metabolic Activation: RAT, LIVER, S-9, AROCLOR 1254 (30%), Method: PREINCUBATION",active; positive
same,mutagenic call,"Test System: AMES SALMONELLA TYPHIMURIUM, Strain/Indicator: TA98, Metabolic Activation: RAT, LIVER, S-9, AROCLOR 1254, Method: MICROSUSPENSION-PREINCUBATION",active; positive
same,mutagenic call,"Test System: AMES SALMONELLA TYPHIMURIUM, Strain/Indicator: TA98, Metabolic Activation: RAT, LIVER, S-9, Method: STANDARD PLATE",active; positive
same,mutagenic call,"Test System: AMES SALMONELLA TYPHIMURIUM, Strain/Indicator: TA100, Metabolic Activation: HAMSTER, LIVER, S-9, AROCLOR 1254 (30%), Method: PREINCUBATION",active; positive
same,mutagenic call,"Test System: AMES SALMONELLA TYPHIMURIUM, Strain/Indicator: TA100, Metabolic Activation: NONE, Method: MICROSUSPENSION-PREINCUBATION",active; positive
same,mutagenic call,"Test System: AMES SALMONELLA TYPHIMURIUM, Strain/Indicator: TA100, Metabolic Activation: NONE, Method: PREINCUBATION",active; positive
same,mutagenic call,"Test System: AMES SALMONELLA TYPHIMURIUM, Strain/Indicator: TA100, Metabolic Activation: RAT, LIVER, S-9, AROCLOR 1254 (30%), Method: PREINCUBATION",active; positive
same,mutagenic call,"Test System: AMES SALMONELLA TYPHIMURIUM, Strain/Indicator: TA100, Metabolic Activation: RAT, LIVER, S-9, AROCLOR 1254, Method: MICROSUSPENSION-PREINCUBATION",active; positive
same,mutagenic call,"Test System: AMES SALMONELLA TYPHIMURIUM, Strain/Indicator: TA100, Metabolic Activation: RAT, LIVER, S-9, AROCLOR 1254, Method: STANDARD PLATE",active; positive
same,mutagenic call,"Test System: AMES SALMONELLA TYPHIMURIUM, Strain/Indicator: TA100, Metabolic Activation: RAT, LIVER, S-9, Method: STANDARD PLATE",active; positive
same,mutagenic call,"Test System: AMES SALMONELLA TYPHIMURIUM, Strain/Indicator: TA102, Metabolic Activation: NONE, Method: FLUCTUATION TEST",active; positive
same,mutagenic call,"Test System: AMES SALMONELLA TYPHIMURIUM, Strain/Indicator: TA102, Metabolic Activation: NONE, Method: MICROSUSPENSION-PREINCUBATION",active; positive
same,mutagenic call,"Test System: AMES SALMONELLA TYPHIMURIUM, Strain/Indicator: TA102, Metabolic Activation: NONE, Method: STANDARD PLATE",active; positive
same,mutagenic call,"Test System: AMES SALMONELLA TYPHIMURIUM, Strain/Indicator: TA102, Metabolic Activation: RAT, LIVER, S-9, AROCLOR 1254, Method: MICROSUSPENSION-PREINCUBATION",active; positive
same,mutagenic call,"Test System: AMES SALMONELLA TYPHIMURIUM, Strain/Indicator: TA103, Metabolic Activation: NONE, Method: STANDARD PLATE",active; positive
same,mutagenic call,"Test System: AMES SALMONELLA TYPHIMURIUM, Strain/Indicator: TA104, Metabolic Activation: NONE, Method: STANDARD PLATE",active; positive
same,mutagenic call,"Test System: AMES SALMONELLA TYPHIMURIUM, Strain/Indicator: TA1535, Metabolic Activation: NONE, Method: STANDARD PLATE",inactive; negative
same,mutagenic call,"Test System: AMES SALMONELLA TYPHIMURIUM, Strain/Indicator: TA1535, Metabolic Activation: RAT, LIVER, S-9, Method: STANDARD PLATE",inactive; negative
same,mutagenic call,"Test System: AMES SALMONELLA TYPHIMURIUM, Strain/Indicator: TA1537, Metabolic Activation: NONE, Method: STANDARD PLATE",inactive; negative
same,mutagenic call,"Test System: AMES SALMONELLA TYPHIMURIUM, Strain/Indicator: TA1537, Metabolic Activation: RAT, LIVER, S-9, Method: STANDARD PLATE",inactive; negative
same,mutagenic call,"Test System: AMES SALMONELLA TYPHIMURIUM, Strain/Indicator: TA1538, Metabolic Activation: NONE, Method: STANDARD PLATE",inactive; negative
same,mutagenic call,"Test System: AMES SALMONELLA TYPHIMURIUM, Strain/Indicator: TA1538, Metabolic Activation: RAT, LIVER, S-9, Method: STANDARD PLATE",inactive; negative
same,mutagenic call,"Test System: AMES SALMONELLA TYPHIMURIUM, Strain/Indicator: TA2638, Metabolic Activation: NONE, Method: PREINCUBATION",active; positive
same,mutagenic call,"Test System: AMES SALMONELLA TYPHIMURIUM, Strain/Indicator: TA2638, Metabolic Activation: NONE, Method: STANDARD PLATE",active; positive
same,mutagenic call,"Test System: AMES SALMONELLA TYPHIMURIUM, Strain/Indicator: TA2638A, Metabolic Activation: NONE, Method: STANDARD PLATE",active; positive
same,mutagenic call,"Test System: E. COLI, Strain/Indicator: WP2 (PKM101), Metabolic Activation: NONE, Method: STANDARD PLATE",active; positive
same,mutagenic call,"Test System: E. COLI, Strain/Indicator: WP2 UVRA (PKM101), Metabolic Activation: NONE, Method: STANDARD PLATE",active; positive
same,mutagenic call,"Test System: E. COLI, Strain/Indicator: WP2 UVRA, Metabolic Activation: NONE, Method: SPOT TEST",active; positive
same,mutagenic call,"Test System: E. COLI, Strain/Indicator: WP2 UVRA, Metabolic Activation: NONE, Method: STANDARD PLATE",active; positive
same,mutagenic call,"Test System: UDS HUMAN AMNION FL CELL LINE, Strain/Indicator: THY INCORP, Metabolic Activation: NONE, Method: LIQUID SCINTILLATION COUNTING",active; positive
